Test results as given in patent US6566375B1, “Elevation of HDL cholesterol by 4-[(aminothioxomethyl)-hydrazono]-N-(substituted)-4-arylbutanamides” (Wyeth, priority 1997, dated 2003).

Key:
HDL cholesterol = experiment: Cholesterol fed rat, in vivo assay of serum HDL cholesterol; parameters: species or system Male Sprague-Dawley rats; conditions: test substance mixed in diet for 8 days, serum HDL cholesterol by FPLC
Protocol: The compounds are tested in vivo in rats fed cholesterol-augmented rodent chow for 8 days according to the test protocol and blood from the rats analyzed for HDL cholesterol.
In Vivo Assa.: Male Sprague-Dawley rats weighing 200-225 g are housed two per cage and fed Purina Rodent Chow Special Mix 5001-S supplemented with 0.25% cholic acid and 1.0% cholesterol and water ad libitum for 8 days. Each test substance is administered to a group of six rats fed the same diet with the test diet mixed in as 0.005-0.1% of the total diet. Body weight and food consumption are recorded prior to diet administration and at termination. Typical doses of the test substances are 5-100 mg/kg/day.
At termination, blood is collected from anesthetized rats and the serum is separated by centrifugation. Total serum cholesterol is assayed using the Sigma Diagnostics enzymatic kit for the determination of cholesterol, Procedure No. 352, modified for use with ninety-six well microtiter plates. After reconstitution with water the reagent contains 300 U/I cholesterol oxidase, 100 U/I horse radish peroxidase, 0.3 mmoles/l of 4-aminoantipyrine and 30.0 mmoles/l of p-hydroxybenzenesulfonate in a pH 6.5 buffer. In the reaction cholesterol is ;oxidized to produce hydrogen peroxide which is used to form a quinoneimine dye. The concentration of dye formed is measured spectrophotometrically by absorbance at 490 nm after incubation at 25° C. for 30 minutes. The concentration of cholesterol was determined for each serum sample relative to a commercial standard from Sigma.
HDL cholesterol concentrations in serum are determined by separation of lipoprotein classes by fast protein liquid chromatography (FPLC) by a modification of the method of Kieft et al., J. Lipid Res., 32 (1991) 859-866. 25 μl of serum is injected onto Superose 12 and Superose 6 (Pharmacia), in series, with a column buffer of 0.05 M Tris (2-amino-2-hydroxymethyl-1,3-propanediol) and 0.15 M sodium chloride at a flow rate of 0.5 ml/min. The eluted sample is mixed on line with Boehringer-Mannheim cholesterol reagent pumped at 0.2 ml/min. The combined eluents are mixed and incubated on line through a knitted coil (Applied Biosciences) maintained at a temperature of 45° C. The eluent is monitored by measuring absorbance at 490 nm and gives a continuous absorbance signal proportional to the cholesterol concentration. The relative concentration of each lipoprotein class is calculated as the per cent of total absorbance. HDL cholesterol concentration, in serum, is calculated as the per cent of total cholesterol as determined by FPLC multiplied by the total serum cholesterol concentration.

For CNC(=O)CCC(=NNC(N)=S)c1ccccc1 [Example 5, 4-[(Aminothioxomrethyl)-hydrazono]-N-methyl-4-phenylbutanamide], the “% Increase in HDL (Dose)” value (HDL cholesterol; 100 mg/kg) was 43.3%.

In the case of NC(=S)NN=C(CCC(=O)N1CCCCC1)c1ccccc1 [Example 8, 1-[4-[(Aminothioxomethyl)hydrazono]-1-oxo-4-phenylbutyl]piperidine], the “% Increase in HDL (Dose)” value (HDL cholesterol; 50 mg/kg) is reported as 52.8% and the melting point is reported as 181 to 183 °C.

In the case of NC(=S)NN=C(CCC(=O)NC1CCCCC1)c1ccccc1 [Example 6, 4-[(Aminothioxomethyl)-hydrazono]-N-cyclohexyl-4-phenylbutanamide], the “% Increase in HDL (Dose)” value (HDL cholesterol; 82 mg/kg) is reported as 28.1% and the melting point is reported as 89 to 92 °C.

In the case of CC(C)NC(=O)CCC(=NNC(N)=S)c1ccccc1 [Example 2, 4-[(Aminothioxomethyl)hydrazono]-N-(1-methylethyl)-4-phenyl-butanamide], the “% Increase in HDL (Dose)” value (HDL cholesterol; 100 mg/kg) is reported as 61.7% and the melting point is reported as 66 to 71 °C.

In the case of NC(=O)CCC(=NNC(N)=S)c1ccccc1 [Example 3, 4-[(Aminothioxomethyl)-hydrazono]-4-phenylbutanamide], the “% Increase in HDL (Dose)” value (HDL cholesterol; 50 mg/kg) is reported as 36.4% and the melting point is reported as 186 to 188 °C.

With CC(C)CCCC(C)NC(=O)CCC(=NNC(N)=S)c1ccccc1 (stereo not shown) [Example 9, 4-[(Aminothioxomethyl)-hydrazono]-N-(1,5-dimethylhexyl)-4-phenyl-butanamide] the “% Increase in HDL (Dose)” value (HDL cholesterol; 50 mg/kg) was 40.4% and the melting point was 58 to 65 °C.

In the case of CCCCNC(=O)CCC(=NNC(N)=S)c1ccccc1 [Example 1, 2-(4-Butylamino-4-oxo-1-phenyl-butylidene)-hydrazinothiocarboxamide], the “% Increase in HDL (Dose)” value (HDL cholesterol; 100 mg/kg) is reported as 56% and the melting point is reported as 64 to 68 °C.

For CN(C)C(=O)CCC(=NNC(N)=S)c1ccccc1 [Example 7, 4-[(Aminothioxomethyl)hydrazono]-N,N-dimethyl-4-phenylbutanamide], the “% Increase in HDL (Dose)” value (HDL cholesterol; 50 mg/kg) was 56.2% and the melting point was 173 to 175 °C.

In the case of NC(=S)NN=C(CCC(=O)NCc1ccccc1)c1ccccc1 [Example 4, 4-[(Aminothioxomtethyl)-hydrazono]-N-benzyl-4-phenylbutanamide], the “% Increase in HDL (Dose)” value (HDL cholesterol; 50 mg/kg) is reported as 49.5%.
